According to patent US9320735B2, “Myeloid derived suppressor cell inhibiting agents” (Colorado State University Research Foundation, priority 2010, dated 2016):
Like-named read-outs stand apart in the source and are kept apart here.

How the values were obtained:
CCR2 [1] = molecular target: T1, CCR2 (Homo sapiens, UniProt P41597); details: read-out: CCR2 IC(50) bind; cited from earlier work
CCR2 [2] = molecular target: T1, CCR2; details: bind or taxis not given; read-out: CCR2 antagonist potency; cited from earlier work
CCR2 [3] = molecular target: T2, CCR2 (Mus musculus, UniProt P51683); assay: IFN-γ release by spleen cells of vaccinated mice treated with RS102895 (FIG. 34); type: in vivo
T2 construct: endogenous in cells
T2 sequence (P51683 whole entry): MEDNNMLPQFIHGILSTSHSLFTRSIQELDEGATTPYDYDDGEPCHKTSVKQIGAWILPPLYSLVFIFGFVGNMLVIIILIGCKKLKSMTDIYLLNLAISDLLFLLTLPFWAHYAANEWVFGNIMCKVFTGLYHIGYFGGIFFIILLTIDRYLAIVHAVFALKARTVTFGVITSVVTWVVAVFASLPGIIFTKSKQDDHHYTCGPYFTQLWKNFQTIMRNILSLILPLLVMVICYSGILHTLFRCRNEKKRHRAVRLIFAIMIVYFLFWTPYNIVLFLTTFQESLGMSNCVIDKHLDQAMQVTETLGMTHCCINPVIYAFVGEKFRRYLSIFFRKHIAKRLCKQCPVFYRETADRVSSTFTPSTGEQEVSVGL
Experimental: FIG. 34. Effects of co-administration of RS102895 (small molecule inhibitor, Tocris BioSciences), on spleen lymphocyte production of IFN-γ from vaccinated animals (T cell response). Mice were vaccinated s.c. with standard vaccine adjuvant (CLDC) and 5 ug ovalbumin and boosted 10 days later. A first group of mice (n=4 per group) received the vaccine only (cross-hatch). A second group of mice was vaccinated and also treated 1 day before, on the same day, and 1 day after with 5 mg/kg of the CCR2 antagonist RS102895, administered i.p. (horizontal line bar). A third group of mice was vaccinated and also treated 1 day before, on the same day, and 1 day after with 5 mg/kg of the CCR2 antagonist RS102895, administered s.q. at the site of vaccination (vertical line bar). The mice were sacrificed 2 weeks after the booster vaccination and spleen cells were incubated in vitro with ovalbumin (50 ug/ml) for 72 hours. Release of […] into the supernatants was determined by ELISA.
Mice were vaccinated s.c. with standard vaccine adjuvant (CLDC) and 5 ug ovalbumin and boosted 10 days later. One group of mice (n=4 per group) received the vaccine only. A second group of mice was vaccinated and also treated 1 day before, on the same day, and 1 day after with 5 mg/kg of the CCR2 antagonist RS102895, administered i.p. A third group of mice was vaccinated and also treated 1 day before, on the same day, and 1 day after with 5 mg/kg of the CCR2 antagonist RS102895, administered s.c. at the site of vaccination. The mice were sacrificed 2 weeks after the booster vaccination and spleen cells were incubated in vitro with ovalbumin (50 ug/ml) for 72 hours and release of IFN-γ into the supernatants was determined by ELISA. […] The data from this study is presented at FIG. 34.

CCR2 [4] = molecular target: T2, CCR2; assay: Antibody titers to ovalbumin after CLDC/ovalbumin vaccination with RS102895 (FIG. 33); type: in vivo, mice; details: 5 mg/kg 1 day before, same day, 1 day after
Experimental: FIG. 33. Effects of co-administration of RS102895 (small molecule inhibitor, Tocris Bioscience), on antibody responses following vaccination via two different modes of administration i.p. (intraperitoneally) or SQ (subcutaneous). Mice were vaccinated SQ with standard vaccine adjuvant (CLDC) and 5 ug ovalbumin, and boosted 10 days later. The first group of mice (n=4 per group) received the vaccine only (cross-hatch bar). A second group of mice was vaccinated and also treated 1 day before, on the same day, and 1 day after with 5 mg/kg of the CCR2 antagonist RS102895 (horizontal line bar), administered i.p. A third group of mice was vaccinated and also treated 1 day before, on the same day, and 1 day after with 5 mg/kg of the CCR2 antagonist RS102895, administered s.c. at the site of vaccination (vertical line bar). Antibody titers to ovalbumin were determined 2 weeks after the boost and plotted as endpoint dilution titers for all animals in all groups. […]
Mice were vaccinated subcutaneous (s.c.) with standard vaccine adjuvant (CLDC) (Cationic liposome-DNA complexes) and 5 ug ovalbumin and boosted 10 days later. […] Antibody titers to ova were determined 2 weeks after the boost and plotted as endpoint dilution titers. […]

human recombinant CCR2b = molecular target: T3, human recombinant CCR2b (Homo sapiens, UniProt P41597); details: read-out: IC50 for inhibition of human recombinant CCR2b receptor; cited from earlier work
T3 sequence (P41597 1-360 isoform P41597-2): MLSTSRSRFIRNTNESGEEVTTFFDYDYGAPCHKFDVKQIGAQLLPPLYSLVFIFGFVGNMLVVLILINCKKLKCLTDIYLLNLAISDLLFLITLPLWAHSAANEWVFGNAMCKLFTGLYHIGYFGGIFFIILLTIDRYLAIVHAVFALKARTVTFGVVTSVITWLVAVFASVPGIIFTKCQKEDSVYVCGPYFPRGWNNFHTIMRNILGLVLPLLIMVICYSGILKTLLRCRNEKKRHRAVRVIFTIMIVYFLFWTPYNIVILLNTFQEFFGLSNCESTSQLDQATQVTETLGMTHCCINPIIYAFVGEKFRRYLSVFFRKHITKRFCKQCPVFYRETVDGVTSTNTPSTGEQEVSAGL

5-HT1A receptor = details: cited from earlier work
human recombinant CCR1 = molecular target: T4, human recombinant CCR1 (Homo sapiens, UniProt P32246); details: read-out: IC50 for inhibition of human recombinant CCR1 receptor; cited from earlier work
T4 sequence (P32246 1-355): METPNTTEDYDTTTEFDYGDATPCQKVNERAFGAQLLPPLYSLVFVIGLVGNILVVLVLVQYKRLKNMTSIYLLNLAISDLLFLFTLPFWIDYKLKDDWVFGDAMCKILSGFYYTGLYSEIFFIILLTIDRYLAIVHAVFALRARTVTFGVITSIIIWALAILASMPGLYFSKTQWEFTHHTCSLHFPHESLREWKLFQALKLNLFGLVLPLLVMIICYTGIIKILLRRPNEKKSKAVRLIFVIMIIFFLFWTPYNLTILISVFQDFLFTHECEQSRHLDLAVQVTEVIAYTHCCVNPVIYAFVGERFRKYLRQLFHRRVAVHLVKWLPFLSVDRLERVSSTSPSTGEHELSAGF

[5] = test system: MCP-1-stimulated calcium influx; details: read-out: IC50, block of MCP-1-stimulated calcium influx; cited from earlier work
[6] = test system: MCP-1-stimulated chemotaxis; details: read-out: IC50, block of MCP-1-stimulated chemotaxis; cited from earlier work
α1A receptor = molecular target: T5, α1A receptor (Homo sapiens, UniProt P35348); details: cited from earlier work
T5 sequence (P35348 1-466): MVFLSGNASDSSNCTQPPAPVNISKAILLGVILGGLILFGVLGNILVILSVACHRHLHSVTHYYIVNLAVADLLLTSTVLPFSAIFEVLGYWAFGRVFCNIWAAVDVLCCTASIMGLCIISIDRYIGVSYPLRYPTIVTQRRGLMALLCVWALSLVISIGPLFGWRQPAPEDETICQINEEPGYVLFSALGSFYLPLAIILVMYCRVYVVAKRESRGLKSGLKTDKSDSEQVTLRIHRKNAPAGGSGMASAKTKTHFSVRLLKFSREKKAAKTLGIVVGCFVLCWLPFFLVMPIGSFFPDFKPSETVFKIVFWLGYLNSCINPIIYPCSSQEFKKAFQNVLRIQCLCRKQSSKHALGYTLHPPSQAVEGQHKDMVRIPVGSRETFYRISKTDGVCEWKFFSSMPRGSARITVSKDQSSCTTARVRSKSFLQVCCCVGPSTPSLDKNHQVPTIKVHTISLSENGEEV

α1D receptor = molecular target: T6, α1D receptor (Homo sapiens, UniProt P25100); details: cited from earlier work
T6 sequence (P25100 1-572): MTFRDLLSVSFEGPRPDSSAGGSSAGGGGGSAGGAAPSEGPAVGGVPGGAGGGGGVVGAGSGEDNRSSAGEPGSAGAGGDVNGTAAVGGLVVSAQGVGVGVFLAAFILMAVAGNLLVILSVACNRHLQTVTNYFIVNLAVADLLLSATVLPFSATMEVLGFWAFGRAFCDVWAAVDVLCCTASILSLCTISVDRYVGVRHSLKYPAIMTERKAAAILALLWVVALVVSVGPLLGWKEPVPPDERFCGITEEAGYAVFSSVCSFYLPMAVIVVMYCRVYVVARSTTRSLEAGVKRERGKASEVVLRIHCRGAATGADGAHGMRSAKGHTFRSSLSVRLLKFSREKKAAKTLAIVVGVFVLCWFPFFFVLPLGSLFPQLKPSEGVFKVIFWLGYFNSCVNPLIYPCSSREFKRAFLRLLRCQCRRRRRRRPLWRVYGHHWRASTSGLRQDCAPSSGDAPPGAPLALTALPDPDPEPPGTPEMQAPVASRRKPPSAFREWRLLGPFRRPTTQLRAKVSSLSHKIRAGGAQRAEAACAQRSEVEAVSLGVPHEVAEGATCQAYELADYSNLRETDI

T1 sequence (P41597 whole entry, species assumed): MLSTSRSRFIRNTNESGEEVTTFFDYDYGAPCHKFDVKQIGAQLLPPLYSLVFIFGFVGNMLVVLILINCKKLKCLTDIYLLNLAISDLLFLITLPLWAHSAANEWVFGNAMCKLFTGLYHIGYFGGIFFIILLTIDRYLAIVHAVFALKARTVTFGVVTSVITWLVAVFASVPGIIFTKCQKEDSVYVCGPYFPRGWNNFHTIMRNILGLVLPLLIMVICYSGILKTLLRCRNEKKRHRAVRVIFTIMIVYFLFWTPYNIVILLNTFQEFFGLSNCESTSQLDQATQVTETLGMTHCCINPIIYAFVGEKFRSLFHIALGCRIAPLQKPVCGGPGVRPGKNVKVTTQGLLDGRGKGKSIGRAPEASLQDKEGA

In the case of `CN(CCN1CCCCC1)c1ccc(-c2nc3cc(Sc4ccc(Cl)c(Cl)c4)ccc3[nH]2)cc1` [Benzimidazoles], the IC50 (CCR2 [1]) is listed as 200 to 300 nM.
For `O=C(/C=C/c1ccc(Cl)c(Cl)c1)NC1CCC(CN2C3CCC2CC(c2c[nH]c4ccc(O)cc24)C3)CC1` (stereo not drawn) [SB-380732], the IC50 (CCR2 [1]) is listed as 50 nM.
In the case of `O=C(CNC(=O)c1ccccc1)NC1CCN(Cc2ccccc2)C1` (stereo not drawn) [3-Aminopyrrolidines], the IC50 (CCR2 [2]) is given as 3 nM.
In the case of `Cl.O=C1Nc2ccccc2C2(CCN(CCc3ccc(C(F)(F)F)cc3)CC2)O1` [RS102895], the “IFN-γ production by spleen cells” value (CCR2 [3]; 5 mg/kg SQ at site of vaccination, ovalbumin 50 ug/ml 72 hours, without CCR2 antagonist about 450) is reported as “about 1,400 pg/ml”, the “IFN-γ production by spleen lymphocytes” value (CCR2 [3]; 5 mg/kg i.p., ovalbumin 50 ug/ml 72 hours, without CCR2 antagonist about 450) is reported as “about 2,300 pg/ml” and the “IFN-γ production vs vaccinated without RS102895” value (CCR2 [3]; 5 mg/kg, either route) is reported as “significantly higher amounts of IFN-γ”. For the same compound, the “antibody titers to ova relative to vaccine alone” value (CCR2 [4]; either route) was ≥ 2 ×, the “antibody titers to ovalbumin vs vaccine alone” value (CCR2 [4]; i.p. or s.c., 2 weeks after boost) was “significantly higher antibody titers” and the IC50 (human recombinant CCR2b) was 360 nM. For the same compound, the “inhibition of 5-HT1A receptor” value (5-HT1A receptor) was “inhibits”, the IC50 (human recombinant CCR1) was 17800 nM and the IC50 [5] was 32 nM. The IC50 [6] was 1700 nM, the “inhibition of α1A receptor” value (α1A receptor) was “inhibits” and the “inhibition of α1D receptor” value (α1D receptor) was “inhibits”.
